Experimental data from patent publication US9695155B2, “Herbicidal substituted pyrimidinyloxy benzene compounds” (E. I. DU PONT DE NEMOURS AND COMPANY, priority 2013, dated 2017).

Legend:
barnyardgrass [1] = experiment: Test C postemergence; type: in vivo, Echinochloa crus-galli
Summary of the method: (§1)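 Plants were kept under greenhouse conditions for 13–15 days following spray. Pre-emergent application went to soil (loam–sand), post-emergent to foliage at 1–4 leaves. Evaluation: visual, percent control against untreated checks.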

velvetleaf = experiment: Test A postemergence; type: in vivo, Abutilon theophrasti; conditions: 0 to 100 scale where 0 is no effect and 100 is complete control
Summary of the method: (§2)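 Visual injury scored 0–100 (100 = complete control) against untreated controls about 10 days after treatment in a greenhouse. Test chemicals, formulated with surfactant in non-phytotoxic solvent, were sprayed on soil preemergence or on 2-10 cm, one- to two-leaf plants postemergence.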

giant foxtail [2] = experiment: Test C preemergence; type: in vivo, Setaria faberii; conditions: for Foxtail, Giant plant response rating: preemergence
Summary of the method: as §1

kochia = experiment: Test C postemergence; type: in vivo, Kochia scoparia
Summary of the method: as §1

pigweed [3] = experiment: Test C preemergence; type: in vivo, Amaranthus retroflexus; conditions: preemergence
Summary of the method: as §1

galium = experiment: Test C postemergence; type: in vivo, Galium aparine
Summary of the method: as §1

corn = experiment: Test C postemergence; type: in vivo, Zea mays
Summary of the method: as §1

pigweed [4] = experiment: Test A preemergence; type: in vivo, Amaranthus retroflexus
Summary of the method: as §2

giant foxtail [5] = experiment: Test A preemergence; type: in vivo, Setaria faberii; conditions: 0 to 100 scale where 0 is no effect and 100 is complete control
Summary of the method: as §2

barnyardgrass [6] = experiment: Test C preemergence; type: in vivo, Echinochloa crus-galli; conditions: for Barnyardgrass plant response rating: preemergence
Summary of the method: as §1

yellow nutsedge [7] = experiment: Test C postemergence; type: in vivo, Cyperus esculentus
Summary of the method: as §1

Italian ryegrass = experiment: Test C postemergence; type: in vivo, Lolium multiflorum
Summary of the method: as §1

wheat, winter = experiment: Test C postemergence; type: in vivo, Triticum aestivum
Summary of the method: as §1

rice = experiment: Test B flooded paddy test; type: in vivo, Oryza sativa; conditions: Flood, 250 g ai/ha; 0 to 100 scale where 0 is no effect and 100 is complete control
Summary of the method: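 Evaluation is visual, against untreated controls, 13 to 15 days after treatment. Before treatment, plants reached the 2-leaf stage; pots were then flooded 3 cm deep, compound was added to the water, and that level was maintained. Ratings run 0 to 100, with 100 meaning complete control.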

yellow nutsedge [8] = experiment: Test C preemergence; type: in vivo, Cyperus esculentus; conditions: preemergence
Summary of the method: as §1

[9] = 16 g ai/ha, postemergence, 0 is no effect, 100 is complete control
[10] = 31 g ai/ha, postemergence, visual rating, scale 0 to 100 (0 no effect, 100 complete control), 13 to 15 days
[11] = 125 g ai/ha, postemergence, visual rating, scale 0 to 100 (0 no effect, 100 complete control)
[12] = Postemergence, 62 g ai/ha, scale 0 to 100 (0 no effect, 100 complete control)
[13] = 16 g ai/ha, scale 0 to 100 (0 no effect, 100 complete control)
[14] = 62 g ai/ha, scale 0 (no effect) to 100 (complete control)
[15] = 125 g ai/ha, scale 0 (no effect) to 100 (complete control)
[16] = Preemergence, 31 g ai/ha, scale 0 to 100, 0 no effect, 100 complete control

FC(F)(F)c1cnn(-c2c(Cl)cccc2Oc2ncc(Cl)cn2)c1 [Compound 167]
10: Plant response rating, Barnyardgrass (barnyardgrass [1]; [11]) | Plant response rating, Barnyardgrass (barnyardgrass [1]; [12]) | Plant response rating, Corn (corn; [12]) | Ryegrass, Italian plant response rating (Italian ryegrass; [10]) | Nutsedge, Yellow plant response rating (yellow nutsedge [8]; [14])
95: Plant response rating, Foxtail, Giant (giant foxtail [2]; [16]) | Plant response rating, Kochia (kochia; [11])
70: Plant response rating (0 to 100), Galium (galium; [9]) | Galium plant response rating (galium; [10]) | Plant response rating, Galium (galium; [12])
35: Foxtail, Giant plant response rating (giant foxtail [2]; [13])
90: Plant response rating (0 to 100), Kochia (kochia; [9]) | Kochia plant response rating (kochia; [10]) | Plant response rating, Kochia (kochia; [12]) | Plant response rating, Galium (galium; [11])
85: Plant response rating, Barnyardgrass (barnyardgrass [6]; [16])
100: Velvetleaf plant response rating (velvetleaf; 125 g ai/ha) | Plant response rating, Velvetleaf (velvetleaf; 500 g ai/ha) | Foxtail, Giant plant response rating (giant foxtail [2]; [14]) | Foxtail, Giant plant response rating (giant foxtail [2]; [15]) | Pigweed plant response rating (pigweed [3]; [13]) | Pigweed plant response rating (pigweed [3]; [14]) | Pigweed plant response rating (pigweed [3]; [15]) | Pigweed plant response rating (0 to 100 scale) (pigweed [4]; 125 g ai/ha) | Pigweed plant response rating (pigweed [4]; 500 g ai/ha, 0 to 100 scale where 0 is no effect and 100 is complete control) | Plant response rating, Foxtail, Giant (giant foxtail [5]; 125 g ai/ha) | Foxtail, Giant plant response rating (giant foxtail [5]; 500 g ai/ha) | Barnyardgrass plant response rating (barnyardgrass [6]; [14]) | Barnyardgrass plant response rating (barnyardgrass [6]; [15])
60: Nutsedge, Yellow plant response rating (yellow nutsedge [8]; [15])
20: Plant response rating, Nutsedge, Yellow (yellow nutsedge [7]; [11])
5: Plant response rating (0 to 100), Barnyardgrass (barnyardgrass [1]; [9]) | Barnyardgrass plant response rating (barnyardgrass [1]; [10]) | Plant response rating (0 to 100), Corn (corn; [9]) | Corn plant response rating (corn; [10]) | Barnyardgrass plant response rating (barnyardgrass [6]; [13]) | Plant response rating, Nutsedge, Yellow (yellow nutsedge [7]; [12]) | Plant response rating, Ryegrass, Italian (Italian ryegrass; [12]) | Plant response rating, Wheat (wheat, winter; [11]) | Plant response rating, Wheat (wheat, winter; [12])
30: Plant response rating, Ryegrass, Italian (Italian ryegrass; [11])
15: Plant response rating, Corn (corn; [11])
0: Plant response rating (0 to 100), Nutsedge, Yellow (yellow nutsedge [7]; [9]) | Nutsedge, Yellow plant response rating (yellow nutsedge [7]; [10]) | Plant response rating (0 to 100), Ryegrass, Italian (Italian ryegrass; [9]) | Plant response rating (0 to 100), Wheat (wheat, winter; [9]) | Wheat plant response rating (wheat, winter; [10]) | Plant response rating, Rice (rice) | Nutsedge, Yellow plant response rating (yellow nutsedge [8]; [13])
